From article PMC9814544 (Communications Chemistry, 2020) come the findings set out here.

Values joined by “and” are separate entries in the source; they are usually repeats but may differ in a detail not shown here. Identical values can stand only once. “Also recorded” adds a separate entry of the source.

The target in data set [1] is T1, human HDL scavenger receptor class B type I (SR-BI) (Homo sapiens, UniProt Q8WTV0).
T1 construct: expressed in transfected cells; host or cells: CHO T-REx (CHO-Trex-hSR-B1 cell line)
T1 sequence (Q8WTV0 1-509 isoform Q8WTV0-2): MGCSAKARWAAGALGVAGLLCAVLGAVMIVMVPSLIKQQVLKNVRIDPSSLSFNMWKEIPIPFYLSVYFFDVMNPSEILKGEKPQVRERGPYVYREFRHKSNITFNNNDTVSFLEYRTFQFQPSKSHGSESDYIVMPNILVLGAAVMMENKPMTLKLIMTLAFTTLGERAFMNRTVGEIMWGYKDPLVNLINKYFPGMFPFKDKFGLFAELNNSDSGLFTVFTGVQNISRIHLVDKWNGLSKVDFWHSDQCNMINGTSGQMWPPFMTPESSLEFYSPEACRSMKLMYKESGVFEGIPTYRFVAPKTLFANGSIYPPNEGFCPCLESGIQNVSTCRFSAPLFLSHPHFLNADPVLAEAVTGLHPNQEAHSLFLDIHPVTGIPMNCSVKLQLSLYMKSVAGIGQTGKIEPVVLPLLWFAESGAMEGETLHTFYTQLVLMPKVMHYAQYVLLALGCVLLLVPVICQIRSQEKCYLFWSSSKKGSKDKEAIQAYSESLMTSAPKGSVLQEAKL
The data set is described as follows: SR-B1 cellular oxLDL uptake counter screen (CHO-Trex-hSR-B1). It is filed as cell-based. The text has this: To identify small molecule inhibitors of LOX-1 mediated oxLDL uptake we developed a cellular high throughput screening (HTS) assay. Small molecule compounds were screened for their ability to block the uptake of AlexaFluor594 (AF594)-labeled human oxLDL into a CHO-K1 cell line with inducible expression of the human LOX-1 receptor. This readout was visualized and images were quantified by fluorescence microscopy (Fig. 1a). As positive controls, cells without induction of LOX-1 as well as a blocking anti-LOX-1 antibody[29] was used (Fig. 1b). More than one million different compounds were screened. Lead-like compounds (molecular weight above 270 Da) were tested at a concentration of 5 µg/ml, whereas a fragment subset (molecular weight below 270 Da) was tested at a tenfold higher concentration to ensure detection of more weakly active but ligand-efficient fragment-like compounds. Employing a hit criterion of lower than 50% of control, a hit rate of 2.8% was observed (Supplementary Fig. 1). These hits were further confirmed by performing two independent assay runs with fresh compound samples, resulting in a confirmation rate of 80% and a confirmed hit rate of 2.2% (Supplementary Fig. 2). To filter out unspecific or false-positive hits, a counter screen was developed and applied for testing the primary hits[30]–[32]. […]
For orientation: Counterscreens check selectivity or assay interference.

A short description of data set [2]: Metabolic stability in human liver microsomes. It is filed as in vitro ADME. The settings on record: in vitro clearance as % hepatic blood flow, n = 1. As to the method:
(§1) The metabolic degradation of the test compound is assayed at 37 °C with microsomes. The final incubation volume of 100 µl per time point contains TRIS buffer pH 7.6 at RT (0.1 M), magnesium chloride (5 mM), microsomal protein (1 mg/ml or 0.5 mg/ml depending on species) and the test compound at a final concentration of 1 µM.
(§2) Following a short preincubation period at 37 °C, the reactions were initiated by addition of beta-nicotinamide adenine dinucleotide phosphate, reduced form (NADPH, 1 mM) and terminated by transfering an aliquot into solvent after different time points. The quenched incubations are pelleted by centrifugation (10000 g, 5 min). An aliquot of the supernatant is assayed by LC-MS/MS for the amount of parent compound. The slope of the semi logarithmic plot of the concentration-time profile determines the half-life. The clearance is calculated by upscaling considering the amount of protein in the incubation, microsomal recovery and liver weight and normalized to the hepatic blood flow of the respective species. The number of experiments for BI-0115 is n = 1.
(Microsomes from liver hold many membrane-bound enzymes, among them those of drug oxidation.)

The nature of data set [3]: Metabolic stability in rat liver microsomes. The settings on record: in vitro clearance as % hepatic blood flow, n = 1. The format is in vitro ADME. As to the method:
as §1, §2

Data set [4] deals with panel of GPCRs, drug transporters, ion channels, nuclear receptors, kinases, and other non-kinase enzymes. Briefly: Eurofins CEREP off-target panel. To be noted: at 10 µM; measured once. As to the method:
To assess potential off-target liabilities, BI-0115 was tested on a panel of assays across various key pharmacological target classes (GPCRs, drug transporters, ion channels, nuclear receptors, kinases, and other non-kinase enzymes; Eurofins CEREP, France). […] Although the compound solubility is low, it was sufficient to get a saturable dose response in the cellular assay and the various biophysical assays. Permeability, as measured with the PAMPA assay is good.

Data set [5] in a line: Metabolic stability in mouse liver microsomes. The format is in vitro ADME. To be noted: in vitro clearance as % hepatic blood flow, n = 1. As to the method: as §1, §2

Turning to `CCCN1C(=O)c2ccc(Cl)cc2Nc2ncccc21` [BI-0115], the IC50 in data set [1] (eight independent measurements 1-8, Supplementary Table 2, read-out: IC50 on SR-B1, individual measurements) is 88.8 µM and > 54.2 µM and > 100 µM (4×) and > 172 µM (2×). Besides, the “activity in the SR-B1 assay” value in data set [1] (in words) is listed as “no activity”. Moreover, in data set [2], the “micr. Stab hLM” value amounted to 77 %QH. Also, the “micr. Stab rLM” value in data set [3] is listed as 95 %QH. Further, in data set [4], the CEREP profile result is listed as “very clean profile; also recorded: clean”. For the same compound, in data set [5], the “micr. Stab mLM” value is 95 %QH.

A word on the IC50: it is the concentration needed to halve the response being measured.
